# Experimental data: patent publication US12208098B2, “4-carbonylamino-4-phenylpyrimidine compound or pharmaceutically acceptable salt thereof” (Gachon University Of Industry-Academic Cooperation …, priority 2018, dated 2025)
# Target: T1, Glutamate Dehydrogenase (GDH) (Rattus norvegicus, UniProt P10860)
# T1 construct: only the supernatant was collected and transferred to a new tube to obtain a cell lysate; endogenous in cells; host or cells: INS-1 cell line (lysate)
# Test: Enzyme activation experiment: GDH Activity Colorimetric Assay Kit on INS-1 cell lysate
# Assay type: biochemical
# Conditions: vehicle-treated group set to 1
# Method: Enzyme Activation Experiment
# A sufficient amount of cells was obtained by culturing the INS-1 cell line under general cell culture condition (37° C. 5% CO2). Immediately before use in the experiment, a culture dish of the INS-1 cells was placed on ice, the culture medium was removed, and then washed with cold phosphate-buffered saline (PBS) (WELGEME, LB 001-02) to obtain a cell pellet.
# To the harvested cell pellet, an appropriate amount of ice-cold Assay Buffer contained in the Glutamate Dehydrogenase (GDH) Activity Colorimetric Assay Kit (BioVision, K729-100) was added and then homogenized in the tube.
# The tube was subjected to centrifuge in a condition of 13,000 g, 4° C. for 10 minutes, and then the pellet was discarded, and only the supernatant was collected and transferred to a new tube to obtain a cell lysate. Then, the protein concentration of the cell lysate was measured using Pierce™ BCA Protein Assay kit (Thermo, 23225).
# By referring to the measured protein concentration, the cell lysate was prepared by diluting its concentration to 30 μg/50 μL or 100 μg/50 μL using the Assay Buffer.
# The prepared cell lysate+vehicle or compound+Reaction mix was added according to the volume determined in the protocol of the Glutamate Dehydrogenase (GDH) Activity Colorimetric Assay Kit and reacted at 37° C., and the absorbance at 450 nm was measured using a kinetic method.
# The GDH activity was calculated according to the calculation formula shown in the Assay Kit, and then the activity of the group treated with the vehicle was set to 1, and the folds of the remaining groups were calculated, and the results are shown in Table 2 below and FIG. 1.
# T1 sequence (P10860 54-558): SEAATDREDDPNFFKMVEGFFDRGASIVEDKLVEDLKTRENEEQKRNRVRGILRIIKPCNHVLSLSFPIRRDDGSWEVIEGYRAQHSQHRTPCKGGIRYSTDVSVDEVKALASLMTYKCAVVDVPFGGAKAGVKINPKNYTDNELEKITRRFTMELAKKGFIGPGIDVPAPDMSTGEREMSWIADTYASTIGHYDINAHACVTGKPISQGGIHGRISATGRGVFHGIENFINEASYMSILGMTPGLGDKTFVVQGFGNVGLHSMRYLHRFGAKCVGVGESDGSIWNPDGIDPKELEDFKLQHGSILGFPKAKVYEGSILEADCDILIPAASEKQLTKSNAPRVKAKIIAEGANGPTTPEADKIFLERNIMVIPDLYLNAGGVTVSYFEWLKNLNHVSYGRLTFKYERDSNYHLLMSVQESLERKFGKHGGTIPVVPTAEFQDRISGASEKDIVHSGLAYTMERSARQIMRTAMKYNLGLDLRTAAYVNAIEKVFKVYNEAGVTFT
Enzyme activity (fold) (compound concentration 0.2 μM),Enzyme activity (fold) (compound concentration 2 μM),SMILES
2.14 fold,6.93 fold,"Nc1nccc(-c2ccc(NC(=O)c3ccc(Br)cc3)cc2)n1 [Compound 6, N-(4-(2-aminopyrimidin-4-yl)phenyl)-4-bromobenzamide]"
1.94 fold,3.23 fold,"COc1cc(C(=O)Nc2ccc(-c3ccnc(N)n3)cc2)ccc1Cl [Compound 7, N-(4-(2-aminopyrimidin-4-yl)phenyl)-4-chloro-3-methoxybenzamide]"
1.34 fold,11.05 fold,"Nc1nccc(-c2ccc(NC(=O)c3ccc(Cl)cc3)cc2)n1 [Compound 8, N-(4-(2-aminopyrimidin-4-yl)phenyl)-4-chlorobenzamide]"
1.13 fold,6.43 fold,"Nc1nccc(-c2ccc(NC(=O)c3cc(Cl)cc(Cl)c3)cc2)n1 [Compound 9, N-(4-(2-aminopyrimidin-4-yl)phenyl)-3,5-dichlorobenzamide]"
2.08 fold,10.83 fold,"Nc1nccc(-c2ccc(NC(=O)c3cccc(C(F)(F)F)c3F)cc2)n1 [Compound 10, N-(4-(2-aminopyrimidin-4-yl)phenyl)-2-fluoro-3-(trifluoromethyl)benzamide]"
